Test system: PDC 899932-113-R3-J6 complex spheroid viability
Experiment: Anticancer human tumor 899932-113-R3-J6-PDC patient-derived melanoma cell line growth inhibition [RAS]
Settings: for IC50: curve of first compound; for viability, T/C: stronger effect = lower value
Text: RAS pathway inhibitors in Combinations in Complex Spheroids
A high-throughput screen of multi-cell type tumor spheroids was designed to identify active combinations of RAS pathway inhibitors and targeted small molecules. Complex spheroids include a stromal component modeled by human endothelial cells (HUVEC) and fibroblasts modeled by human mesenchymal stem cells (MSCs). The concentration ranges selected for each drug and investigational agent were based upon clinically achievable concentrations if the clinical Cmax of the agent was known.
Compounds. The drugs and investigational agents: abemaciclib (NSC768073), cobimetinib (NSC768068), divarasib (GDC6063, NSC841802), docetaxel (NSC628503), GDC-1971 (RLY-1971, NSC841576), gemcitabine (NSC613327), inavolisib (NSC800729), ipatasertib (NSC767898), KB-0742 (NSC834161), MRTX-1133 (NSC836407), osimertinib (NSC779217), RMC-4630 (NSC839698), RMC-6236 (NSC851965), RMC-6291 (NSC852671), Ro-3306 (NSC812927), sapanisertib (NSC764658), SN-38 (NSC673596), staurosporine (NSC755774), SY5609 (NSC837396), and tovorafenib (DAY101, NSC766906), were obtained from the National Cancer Institute (NCI) Developmental Therapeutics Program Chemical Repository. The FDA-approved anticancer drug set is available from the NCI Developmental Therapeutics Program. […] The stock solutions were prepared in dimethyl sulfoxide (DMSO, Sigma-Aldrich, St. Louis, MO, cat. D2650) at 800-fold the tested concentration and stored at -70 degrees C prior to their use. All drugs and investigational agents were tested over a range starting from a high concentration at or near the clinical Cmax and decreasing in half-log increments. If the clinical Cmax for an agent had not been determined, the highest concentration tested was 10 microM.
Cell Culture. All cells were maintained in an incubator at 37 degrees C and 5% CO2 with 95% humidity. The PDC lines were cultured according to standard operating procedures established by the NCI PDMR. All PDCs were thawed and cultured in Matrigel-coated flasks prepared with a working solution of 1X Ham's F-12 nutrient mix, without supplementation (Invitrogen, Waltham, MA, cat. 11765054), 100 U/mL penicillin-streptomycin (Invitrogen, cat. 15140122), and 2.5% Matrigel (Corning Inc., Corning, NY, cat. 354248) for the first three passages. The 362531-283-R-J2-PDC and 782815-120-R-J1-PDC lines were cultured in 6C/Colon 1B media, which includes advanced DMEM/F-12 (Thermo Fisher Scientific, cat. 12634028), 10 mM HEPES (Thermo Fisher Scientific, cat. 15630080), 1X GlutaMAX supplement (Thermo Fisher Scientific, cat. 35050061), 0.1 mg/mL primocin (InvivoGen, San Diego, CA, cat. ant-pm-2), 10% defined fetal bovine serum, heat inactivated (HyClone Laboratories Inc., Logan, UT, cat. SH30070.03HI), 50% L-WRN conditioned media (ATCC, cat. CRL-3276), 1.25 mM N-Acetyl-L-cysteine (Sigma-Aldrich, cat. A9165), 10 mM nicotinamide (Sigma-Aldrich, cat. N0636), 1X B-27 supplement (Thermo Fisher Scientific, cat. 17504044), 1X N-2 supplement (Thermo Fisher Scientific, cat. 17502048), 50 ng/mL human EGF (Thermo Fisher Scientific, cat. PHG0311), and 10 microM Y-27632 dihydrochloride (Tocris Bioscience, cat. 1254). The K12877-001-R-J1-PDC line was cultured in 6I media, which includes all 6C/Colon 1B media plus 10 ng/mL human FGF-10 (PeproTech, cat. 100-26), 1 ng/mL human FGF-2 (PeproTech, cat. 100-18B), 1 µM prostaglandin E2 (Tocris Bioscience, cat. 2296), […] hydrocortisone (Sigma-Aldrich, cat. H4001), and […] bovine insulin (Sigma-Aldrich, cat. I6634). The K86415-001-R-J1-PDC line was cultured in 6D media, which includes all 6C/Colon 1B media components minus the L-WRN conditioned media. The 485176-168-R4-J1-PDC was cultured in PANC media, which includes all 6C/Colon 1B media plus 100 ng/mL human FGF-10 (PeproTech, cat. 100-26), 500 nM SB-431542 (Selleckchem, cat. S1067), and 10 nM gastrin (Tocris Bioscience, cat. 3006). […]
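Wherever viability, T/C is given: spheroids exposed to agents for seven days before readout; 100% = DMSO vehicle control wells.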

## CCC(CC)c1cc(NC2CCC(N)C2)n2nccc2n1 (configuration not stated) + C#Cc1c(F)ccc2cc(O)cc(-c3ncc4c(N5CC6CCC(C5)N6)nc(OCC56CCCN5CC(F)C6)nc4c3F)c12
Second compound 0.0316 µM
  IC50: 1690 nM
Second compound 0.1 µM
  IC50: 1640 nM
Second compound 0.316 µM
  IC50: 1660 nM
Second compound 1 µM
  IC50: 1740 nM
Second compound 3.16 µM
  IC50: 1790 nM
Second compound 10 µM
  IC50: 1720 nM
Second compound 0.0316 µM, first compound 0.0316 µM
  viability, T/C: 96.8%
Second compound 0.0316 µM, first compound 0.1 µM
  viability, T/C: 91.5%
Second compound 0.0316 µM, first compound 0.316 µM
  viability, T/C: 103%
Second compound 0.0316 µM, first compound 1 µM
  viability, T/C: 91.5%
Second compound 0.0316 µM, first compound 3.16 µM
  viability, T/C: 0.88%
Second compound 0.0316 µM, first compound 10 µM
  viability, T/C: 0.24%
Second compound 0.1 µM, first compound 0.0316 µM
  viability, T/C: 104%
Second compound 0.1 µM, first compound 0.1 µM
  viability, T/C: 104%
Second compound 0.1 µM, first compound 0.316 µM
  viability, T/C: 92.9%
Second compound 0.1 µM, first compound 1 µM
  viability, T/C: 87.3%
Second compound 0.1 µM, first compound 3.16 µM
  viability, T/C: 0.78%
Second compound 0.1 µM, first compound 10 µM
  viability, T/C: 0.23%
Second compound 0.316 µM, first compound 0.0316 µM
  viability, T/C: 107%
Second compound 0.316 µM, first compound 0.1 µM
  viability, T/C: 93.9%
Second compound 0.316 µM, first compound 0.316 µM
  viability, T/C: 98.5%
Second compound 0.316 µM, first compound 1 µM
  viability, T/C: 88.3%
Second compound 0.316 µM, first compound 3.16 µM
  viability, T/C: 0.84%
Second compound 0.316 µM, first compound 10 µM
  viability, T/C: 0.9%
Second compound 1 µM, first compound 0.0316 µM
  viability, T/C: 112%
Second compound 1 µM, first compound 0.1 µM
  viability, T/C: 112%
Second compound 1 µM, first compound 0.316 µM
  viability, T/C: 120%
Second compound 1 µM, first compound 1 µM
  viability, T/C: 95.2%
Second compound 1 µM, first compound 3.16 µM
  viability, T/C: 1.22%
Second compound 1 µM, first compound 10 µM
  viability, T/C: 0.22%
Second compound 3.16 µM, first compound 0.0316 µM
  viability, T/C: 103%
Second compound 3.16 µM, first compound 0.1 µM
  viability, T/C: 107%
Second compound 3.16 µM, first compound 0.316 µM
  viability, T/C: 107%
Second compound 3.16 µM, first compound 1 µM
  viability, T/C: 100%
Second compound 3.16 µM, first compound 3.16 µM
  viability, T/C: 0.97%
Second compound 3.16 µM, first compound 10 µM
  viability, T/C: 0.24%
Second compound 10 µM, first compound 0.0316 µM
  viability, T/C: 116%
Second compound 10 µM, first compound 0.1 µM
  viability, T/C: 105%
Second compound 10 µM, first compound 0.316 µM
  viability, T/C: 105%
Second compound 10 µM, first compound 1 µM
  viability, T/C: 94.2%
Second compound 10 µM, first compound 3.16 µM
  viability, T/C: 0.5%
Second compound 10 µM, first compound 10 µM
  viability, T/C: 0.27%

Source: PubChem BioAssay AID2060895 (Molecular Pharmacology Branch, DTP, NCI, 2025)
